Measured values taken from patent US7005453B1, “Use of hop acids to inhibit growth of Staphylococcus aureus and prevent toxic shock syndrome” (Miller Brewing Company, priority 1999, dated 2006).

Legend:
Staphylococcus aureus = experiment: MIC assay using Staphylococcus aureus in trypticase soy broth, growth scored by turbidity; format: cell-based; settings: for growth (turbidity score): aerobic 37° C., three days; for minimum inhibitory concentration: S. aureus at pH 6.0
Procedure: (§1) Minimal inhibitory concentration (MIC) assays of several hop compounds were conducted using a Staphylococcus aureus species and vaginal isolates Lactobacillus vaginalias, Lactobacillus crispatus, Lactobacillus gasseri, and Lactobacillus jensenii as test microorganisms. Lactobacillus assays were conducted in Lactobacillus MRS broth (Difco) tubes. A 0.1 ml aliquot of a 1% (w/w) solution of each hop acid in alcohol was added to a tube of sterile MRS broth to give a final concentration of 100 ppm of the hop. This solution was serially diluted in tubes with sterile MRS broth using a two-fold dilution series. A second dilution series prepared as above, but using 0.1 ml alcohol without hop acid, was used as a positive control of bacterial growth. Each tube was inoculated with a fresh culture (10^4 cells) of a Lactobacillus species in MRS broth. The cultures were incubated anaerobically in a CO2 incubator at 28° C. for five days. Growth was evaluated by visually assessing and scoring development of turbidity in the tube of broth.
The MIC assays for Staphylococcus aureus were conducted in Difco trypticase soy broth (TSB) using the same serial dilution technique and the inoculum level as described above. The pH of the TSB was adjusted to pH7.0, pH 6.0, or pH5.0 using hydrochloric acid. The tubes were incubated aerobically at 37° C. for three days and growth was evaluated by visually assessing and scored the development of turbidity in the broth.

Lactobacillus species = experiment: MIC assay using Lactobacillus species (vaginal isolates) in MRS broth, growth scored by turbidity; format: cell-based; settings: for growth (turbidity score): MRS at pH 6.3, anaerobic 28° C., five days; for concentration as high as which Lactobacillus exhibited strong growth: Lactobacillus species tested
Procedure: as §1

## tetrahydroiso alpha acids
Staphylococcus aureus; 0.2 ppm, TSB at pH 5.0
  growth (turbidity score): No growth
Staphylococcus aureus; 0.2 ppm, TSB at pH 6.0
  growth (turbidity score): ++ Growth
Staphylococcus aureus; 0.2 ppm, TSB at pH 7.0
  growth (turbidity score): +++ Growth
Staphylococcus aureus; 0.39 ppm, TSB at pH 5.0
  growth (turbidity score): No growth
Staphylococcus aureus; 0.39 ppm, TSB at pH 6.0
  growth (turbidity score): +/− Growth
Staphylococcus aureus; 0.39 ppm, TSB at pH 7.0
  growth (turbidity score): ++ Growth
Staphylococcus aureus; 0.78 ppm, TSB at pH 5.0
  growth (turbidity score): No growth
Staphylococcus aureus; 0.78 ppm, TSB at pH 6.0
  growth (turbidity score): No growth
Staphylococcus aureus; 0.78 ppm, TSB at pH 7.0
  growth (turbidity score): + Growth
Staphylococcus aureus; 1.56 ppm, TSB at pH 5.0
  growth (turbidity score): No growth
Staphylococcus aureus; 1.56 ppm, TSB at pH 6.0
  growth (turbidity score): No growth
Staphylococcus aureus; 1.56 ppm, TSB at pH 7.0
  growth (turbidity score): +/− Growth
Staphylococcus aureus; 3.125 ppm, TSB at pH 5.0
  growth (turbidity score): No growth
Staphylococcus aureus; 3.125 ppm, TSB at pH 6.0
  growth (turbidity score): No growth
Staphylococcus aureus; 3.125 ppm, TSB at pH 7.0
  growth (turbidity score): No growth
Staphylococcus aureus; 6.25 ppm, TSB at pH 5.0
  growth (turbidity score): No growth
Staphylococcus aureus; 6.25 ppm, TSB at pH 6.0
  growth (turbidity score): No growth
Staphylococcus aureus; 6.25 ppm, TSB at pH 7.0
  growth (turbidity score): No growth
Staphylococcus aureus; 12.5 ppm, TSB at pH 5.0
  growth (turbidity score): No growth
Staphylococcus aureus; 12.5 ppm, TSB at pH 6.0
  growth (turbidity score): No growth
Staphylococcus aureus; 12.5 ppm, TSB at pH 7.0
  growth (turbidity score): No growth
Staphylococcus aureus; 25 ppm, TSB at pH 5.0
  growth (turbidity score): No growth
Staphylococcus aureus; 25 ppm, TSB at pH 6.0
  growth (turbidity score): No growth
Staphylococcus aureus; 25 ppm, TSB at pH 7.0
  growth (turbidity score): No growth
Staphylococcus aureus; 50 ppm, TSB at pH 5.0
  growth (turbidity score): No growth
Staphylococcus aureus; 50 ppm, TSB at pH 6.0
  growth (turbidity score): No growth
Staphylococcus aureus; 50 ppm, TSB at pH 7.0
  growth (turbidity score): No growth
Staphylococcus aureus; 100 ppm, TSB at pH 5.0
  growth (turbidity score): No growth
Staphylococcus aureus; 100 ppm, TSB at pH 6.0
  growth (turbidity score): No growth
Staphylococcus aureus; 100 ppm, TSB at pH 7.0
  growth (turbidity score): No growth
Staphylococcus aureus
  concentration as low as which S. aureus showed no to very weak growth: 1.56 ppm
  minimum inhibitory concentration: 0.78 ppm
Lactobacillus species; 0.2 ppm
  growth (turbidity score): +++ Growth
Lactobacillus species; 0.39 ppm
  growth (turbidity score): +++ Growth
Lactobacillus species; 0.78 ppm
  growth (turbidity score): +++ Growth
Lactobacillus species; 1.56 ppm
  growth (turbidity score): +++ Growth
Lactobacillus species; 3.125 ppm
  growth (turbidity score): +++ Growth
Lactobacillus species; 6.25 ppm
  growth (turbidity score): +++ Growth
Lactobacillus species; 12.5 ppm
  growth (turbidity score): ++ Growth
Lactobacillus species; 25 ppm
  growth (turbidity score): +/− Growth
Lactobacillus species; 50 ppm
  growth (turbidity score): No growth
Lactobacillus species; 100 ppm
  growth (turbidity score): No growth
Lactobacillus species
  concentration as high as which Lactobacillus exhibited strong growth: 12.5 ppm

## hexahydro beta acids
Staphylococcus aureus; 0.2 ppm, TSB at pH 5.0
  growth (turbidity score): No growth
Staphylococcus aureus; 0.2 ppm, TSB at pH 6.0
  growth (turbidity score): + Growth
Staphylococcus aureus; 0.2 ppm, TSB at pH 7.0
  growth (turbidity score): +++ Growth
Staphylococcus aureus; 0.39 ppm, TSB at pH 5.0
  growth (turbidity score): No growth
Staphylococcus aureus; 0.39 ppm, TSB at pH 6.0
  growth (turbidity score): No growth
Staphylococcus aureus; 0.39 ppm, TSB at pH 7.0
  growth (turbidity score): ++ Growth
Staphylococcus aureus; 0.78 ppm, TSB at pH 5.0
  growth (turbidity score): No growth
Staphylococcus aureus; 0.78 ppm, TSB at pH 6.0
  growth (turbidity score): No growth
Staphylococcus aureus; 0.78 ppm, TSB at pH 7.0
  growth (turbidity score): + Growth
Staphylococcus aureus; 1.56 ppm, TSB at pH 5.0
  growth (turbidity score): No growth
Staphylococcus aureus; 1.56 ppm, TSB at pH 6.0
  growth (turbidity score): No growth
Staphylococcus aureus; 1.56 ppm, TSB at pH 7.0
  growth (turbidity score): +/− Growth
Staphylococcus aureus; 3.125 ppm, TSB at pH 5.0
  growth (turbidity score): No growth
Staphylococcus aureus; 3.125 ppm, TSB at pH 6.0
  growth (turbidity score): No growth
Staphylococcus aureus; 3.125 ppm, TSB at pH 7.0
  growth (turbidity score): No growth
Staphylococcus aureus; 6.25 ppm, TSB at pH 5.0
  growth (turbidity score): No growth
Staphylococcus aureus; 6.25 ppm, TSB at pH 6.0
  growth (turbidity score): No growth
Staphylococcus aureus; 6.25 ppm, TSB at pH 7.0
  growth (turbidity score): No growth
Staphylococcus aureus; 12.5 ppm, TSB at pH 5.0
  growth (turbidity score): No growth
Staphylococcus aureus; 12.5 ppm, TSB at pH 6.0
  growth (turbidity score): No growth
Staphylococcus aureus; 12.5 ppm, TSB at pH 7.0
  growth (turbidity score): No growth
Staphylococcus aureus; 25 ppm, TSB at pH 5.0
  growth (turbidity score): No growth
Staphylococcus aureus; 25 ppm, TSB at pH 6.0
  growth (turbidity score): No growth
Staphylococcus aureus; 25 ppm, TSB at pH 7.0
  growth (turbidity score): No growth
Staphylococcus aureus; 50 ppm, TSB at pH 5.0
  growth (turbidity score): No growth
Staphylococcus aureus; 50 ppm, TSB at pH 6.0
  growth (turbidity score): No growth
Staphylococcus aureus; 50 ppm, TSB at pH 7.0
  growth (turbidity score): No growth
Staphylococcus aureus; 100 ppm, TSB at pH 5.0
  growth (turbidity score): No growth
Staphylococcus aureus; 100 ppm, TSB at pH 6.0
  growth (turbidity score): No growth
Staphylococcus aureus; 100 ppm, TSB at pH 7.0
  growth (turbidity score): No growth
Staphylococcus aureus
  concentration as low as which S. aureus showed no to very weak growth: 1.56 ppm
  minimum inhibitory concentration: 0.78 ppm
Lactobacillus species; 0.2 ppm
  growth (turbidity score): +++ Growth
Lactobacillus species; 0.39 ppm
  growth (turbidity score): +++ Growth
Lactobacillus species; 0.78 ppm
  growth (turbidity score): +++ Growth
Lactobacillus species; 1.56 ppm
  growth (turbidity score): +++ Growth
Lactobacillus species; 3.125 ppm
  growth (turbidity score): +++ Growth
Lactobacillus species; 6.25 ppm
  growth (turbidity score): +++ Growth
Lactobacillus species; 12.5 ppm
  growth (turbidity score): +++ Growth
Lactobacillus species; 25 ppm
  growth (turbidity score): +/− Growth
Lactobacillus species; 50 ppm
  growth (turbidity score): No growth
Lactobacillus species; 100 ppm
  growth (turbidity score): No growth
Lactobacillus species
  concentration as high as which Lactobacillus exhibited strong growth: 12.5 ppm
